Reference: patent publication US20240374726A1, “BAG6 SPECIFIC CHIMERIC ANTIGEN RECEPTOR, NUCLEIC ACID, BAG6 SPECIFIC CHIMERIC ANTIGEN RECEPTOR EXPRESSION PLASMID, BAG6 SPECIFIC CHIMERIC ANTIGEN RECEPTOR EXPRESSING CELL, USE THEREOF, AND PHARMACEUTICAL COMPOSITION FOR TREATING CANCER” (China Medical University Hospital, priority 2023, published 2024)
Values joined by “and” are separate entries in the source; they are usually repeats but may differ in a detail not shown here. Identical values can stand only once.

Tests used:
Assay type in all cases: cell-based
[1] = tested on: B7-H6 on the plasma membrane of the human ovarian cancer cell line SKOV3; test: expression level of B7-H6, flow cytometry; conditions: carboplatin 20 μM, 48 hours, versus untreated control
Experimental: (§1) To explore whether treatment with the chemotherapy drug affects the expression of BAG6, HLA-G and B7-H6 on the cell membrane of tumor cells, the tumor cells used were human breast cancer cell line MDA-MB-231, human malignant brain tumor cell line DBTRG-05MG (hereinafter referred to as DBTRG), human pancreatic cancer cell line AsPC-1, and human ovarian cancer cell line SKOV3. The tumor cells used were all purchased from the American Type Culture Collection (ATCC). The human breast cancer cell line MDA-MB-231 is a triple-negative breast cancer cell line, that is, the hormone receptor (ER, PR) and HER-2 receptor thereof are negative, and the human breast cancer cell line MDA-MB-231 was cultured in RPMI culture medium including 10% fetal bovine serum (FBS). The human malignant brain tumor cell line DBTRG was cultured in DMEM culture medium including 10% FBS. The human pancreatic cancer cell line AsPC-1 was cultured in RPMI culture medium including 10% FBS. The human ovarian cancer cell line SKOV3 was cultured in McCoy's 5A culture medium including 10% FBS.

[2] = tested on: BAG6 on the plasma membrane of the human ovarian cancer cell line SKOV3; test: expression level of BAG6, immunofluorescence staining and flow cytometry; conditions: carboplatin 20 μM, 48 hours, versus untreated control
Experimental: as §1

[3] = tested on: HLA-G on the plasma membrane of the human ovarian cancer cell line SKOV3; test: expression level of HLA-G, flow cytometry; conditions: carboplatin 20 μM, 48 hours, versus untreated control
Experimental: as §1

[4] = tested on: B7-H6 on the plasma membrane of the human breast cancer cell line MDA-MB-231; test: expression level of B7-H6, flow cytometry; conditions: doxorubicin 200 nM, 48 hours, versus untreated control
Experimental: as §1

[5] = tested on: BAG6 on the plasma membrane of the human breast cancer cell line MDA-MB-231; test: expression level of BAG6, immunofluorescence staining and flow cytometry; conditions: doxorubicin 200 nM, 48 hours, versus untreated control
Experimental: as §1

[6] = tested on: HLA-G on the plasma membrane of the human breast cancer cell line MDA-MB-231; test: expression level of HLA-G, flow cytometry; conditions: doxorubicin 200 nM, 48 hours, versus untreated control
Experimental: as §1

[7] = tested on: human malignant brain tumor cell line DBTRG; test: tumor cell death, Annexin V-FITC/PI flow cytometry (cytotoxicity); conditions: group 1: chemotherapy drug alone, temozolomide 80 μg/mL, three independent trials
Experimental: The cells were subsequently incubated for 48 hours. Each type of the tumor cells was divided into six groups. In a control, the tumor cells were untreated. In a group 1, the tumor cells were treated with the chemotherapy drug. In a group 2, the tumor cells were treated with the parental primary T lymphocyte. In a group 3, the tumor cells are treated with the parental primary T lymphocyte and the chemotherapy drug. In a group 4, the tumor cells were treated with Example 1. In a group 5, the tumor cells were treated with Example 1 and the chemotherapy drug. […] In the group 4 and the group 5, the number of Example 1 treated was 1×10^5 cells. […] The treated cells of each group were stained with Annexin V-FITC and propidium iodide (PI), and the apoptosis and the death of the tumor cells were detected by the flow cytometry. The sum of the percentage of cells stained with Annexin V-FITC and/or PI were calculated to obtain the cytotoxicity. The results of the cytotoxicity were counted after three independent trials in each group.
The cells were subsequently incubated for 48 hours. […] The treated cells of each group were stained with Annexin V-FITC and PI, and the apoptosis and the death of the tumor cells were detected by the flow cytometry. The sum of the percentage of cells stained with Annexin V-FITC and/or PI were calculated to obtain the cytotoxicity. […]

Compound: N.N.O=C([O-])C1(C(=O)[O-])CCC1.[Pt+2] [carboplatin]
- expression of B7-H6 on the plasma membrane [1]: increase the expression of B7-H6
- expression of BAG6 on the plasma membrane [2]: increase the expression of BAG6
- expression of HLA-G on the plasma membrane [3]: increase the expression of HLA-G

Compound: COc1cccc2c1C(=O)c1c(O)c3c(c(O)c1C2=O)C[C@@](O)(C(=O)CO)C[C@@H]3O[C@H]1C[C@H](N)[C@H](O)[C@H](C)O1 [doxorubicin]
- expression of B7-H6 on the plasma membrane [4]: increase the expression of B7-H6
- expression of BAG6 on the plasma membrane [5]: increase the expression of BAG6
- expression of HLA-G on the plasma membrane [6]: increase the expression of HLA-G

Compound: Cn1nnc2c(C(N)=O)ncn2c1=O [temozolomide]
- death rate [7]: 8.4033% and 14.9267% and 5.5450% and 11.7933% and 13.9750%
